Assay results: BigSolDB 2.1

CC(C)(c1ccc(O)cc1)c1ccc(O)cc1
solubility (mole fraction) (in 1,4-dioxane, 288.15 K): 0.205 | solubility (mole fraction) (in 1,4-dioxane, 293.15 K): 0.224 | solubility (mole fraction) (in 1,4-dioxane, 298.15 K): 0.245 | solubility (mole fraction) (in 1,4-dioxane, 303.15 K): 0.264 | solubility (mole fraction) (in 1,4-dioxane, 308.15 K): 0.285 | solubility (mole fraction) (in 1,4-dioxane, 313.15 K): 0.307 | solubility (mole fraction) (in DMF, 273.15 K): 0.298 | solubility (mole fraction) (in DMF, 278.15 K): 0.308 | solubility (mole fraction) (in DMF, 283.15 K): 0.324 | solubility (mole fraction) (in DMF, 288.15 K): 0.342 | solubility (mole fraction) (in DMF, 293.15 K): 0.361 | solubility (mole fraction) (in DMF, 298.15 K): 0.383 | solubility (mole fraction) (in DMF, 303.15 K): 0.409 | solubility (mole fraction) (in DMF, 308.15 K): 0.43 | solubility (mole fraction) (in DMF, 313.15 K): 0.452 | solubility (mole fraction) (in acetone, 273.15 K): 0.293 | solubility (mole fraction) (in acetone, 278.15 K): 0.301 | solubility (mole fraction) (in acetone, 283.15 K): 0.311 | solubility (mole fraction) (in acetone, 288.15 K): 0.321 | solubility (mole fraction) (in acetonitrile, 273.15 K): 0.135 | solubility (mole fraction) (in acetonitrile, 278.15 K): 0.141 | solubility (mole fraction) (in acetonitrile, 283.15 K): 0.15 | solubility (mole fraction) (in acetonitrile, 288.15 K): 0.16 | solubility (mole fraction) (in acetonitrile, 293.15 K): 0.169 | solubility (mole fraction) (in acetonitrile, 298.15 K): 0.176 | solubility (mole fraction) (in acetonitrile, 303.15 K): 0.185 | solubility (mole fraction) (in acetonitrile, 308.15 K): 0.196 | solubility (mole fraction) (in acetonitrile, 313.15 K): 0.207 | solubility (mole fraction) (in cyclohexanone, 273.15 K): 0.0936 | solubility (mole fraction) (in cyclohexanone, 278.15 K): 0.111 | solubility (mole fraction) (in cyclohexanone, 283.15 K): 0.126 | solubility (mole fraction) (in cyclohexanone, 288.15 K): 0.142 | solubility (mole fraction) (in cyclohexanone, 293.15 K): 0.158 | solubility (mole fraction) (in cyclohexanone, 298.15 K): 0.176 | solubility (mole fraction) (in cyclohexanone, 303.15 K): 0.195 | solubility (mole fraction) (in cyclohexanone, 308.15 K): 0.215 | solubility (mole fraction) (in cyclohexanone, 313.15 K): 0.235 | solubility (mole fraction) (in ethanol, 273.15 K): 0.21 | solubility (mole fraction) (in ethanol, 278.15 K): 0.215 | solubility (mole fraction) (in ethanol, 283.15 K): 0.221 | solubility (mole fraction) (in ethanol, 288.15 K): 0.227 | solubility (mole fraction) (in ethanol, 293.15 K): 0.233 | solubility (mole fraction) (in ethanol, 298.15 K): 0.24 | solubility (mole fraction) (in ethanol, 303.15 K): 0.246 | solubility (mole fraction) (in ethanol, 308.15 K): 0.253 | solubility (mole fraction) (in ethanol, 313.15 K): 0.26 | solubility (mole fraction) (in ethyl acetate, 273.15 K): 0.235 | solubility (mole fraction) (in ethyl acetate, 278.15 K): 0.237 | solubility (mole fraction) (in ethyl acetate, 283.15 K): 0.24 | solubility (mole fraction) (in ethyl acetate, 288.15 K): 0.243 | solubility (mole fraction) (in ethyl acetate, 293.15 K): 0.246 | solubility (mole fraction) (in ethyl acetate, 298.15 K): 0.251 | solubility (mole fraction) (in ethyl acetate, 303.15 K): 0.255 | solubility (mole fraction) (in ethyl acetate, 308.15 K): 0.26 | solubility (mole fraction) (in ethyl acetate, 313.15 K): 0.265 | solubility (mole fraction) (in formamide, 278.15 K): 0.14 | solubility (mole fraction) (in formamide, 283.15 K): 0.151 | solubility (mole fraction) (in formamide, 288.15 K): 0.164 | solubility (mole fraction) (in formamide, 293.15 K): 0.178 | solubility (mole fraction) (in formamide, 298.15 K): 0.193 | solubility (mole fraction) (in formamide, 308.15 K): 0.231 | solubility (mole fraction) (in formamide, 313.15 K): 0.252 | solubility (mole fraction) (in isopropanol, 273.15 K): 0.0503 | solubility (mole fraction) (in isopropanol, 278.15 K): 0.0603 | solubility (mole fraction) (in isopropanol, 283.15 K): 0.0719 | solubility (mole fraction) (in isopropanol, 288.15 K): 0.0858 | solubility (mole fraction) (in isopropanol, 293.15 K): 0.097 | solubility (mole fraction) (in isopropanol, 298.15 K): 0.111 | solubility (mole fraction) (in isopropanol, 303.15 K): 0.123 | solubility (mole fraction) (in isopropanol, 308.15 K): 0.139 | solubility (mole fraction) (in isopropanol, 313.15 K): 0.153 | solubility (mole fraction) (in methanol, 273.15 K): 0.187 | solubility (mole fraction) (in methanol, 278.15 K): 0.19 | solubility (mole fraction) (in methanol, 283.15 K): 0.194 | solubility (mole fraction) (in methanol, 288.15 K): 0.198 | solubility (mole fraction) (in methanol, 293.15 K): 0.202 | solubility (mole fraction) (in methanol, 298.15 K): 0.207 | solubility (mole fraction) (in methanol, 303.15 K): 0.212 | solubility (mole fraction) (in methanol, 308.15 K): 0.217 | solubility (mole fraction) (in methanol, 313.15 K): 0.223 | solubility (mole fraction) (in methyl acetate, 273.15 K): 0.236 | solubility (mole fraction) (in methyl acetate, 278.15 K): 0.237 | solubility (mole fraction) (in methyl acetate, 283.15 K): 0.239 | solubility (mole fraction) (in methyl acetate, 288.15 K): 0.241 | solubility (mole fraction) (in methyl acetate, 293.15 K): 0.246 | solubility (mole fraction) (in methyl acetate, 298.15 K): 0.249 | solubility (mole fraction) (in methyl acetate, 303.15 K): 0.253 | solubility (mole fraction) (in methyl acetate, 308.15 K): 0.257 | solubility (mole fraction) (in methyl acetate, 313.15 K): 0.261 | solubility (mole fraction) (in n-butanol, 273.15 K): 0.0748 | solubility (mole fraction) (in n-butanol, 278.15 K): 0.0833 | solubility (mole fraction) (in n-butanol, 283.15 K): 0.0942 | solubility (mole fraction) (in n-butanol, 288.15 K): 0.108 | solubility (mole fraction) (in n-butanol, 293.15 K): 0.12 | solubility (mole fraction) (in n-butanol, 298.15 K): 0.136 | solubility (mole fraction) (in n-butanol, 303.15 K): 0.149 | solubility (mole fraction) (in n-butanol, 308.15 K): 0.163 | solubility (mole fraction) (in n-butanol, 313.15 K): 0.181 | solubility (mole fraction) (in n-propanol, 273.15 K): 0.176 | solubility (mole fraction) (in n-propanol, 278.15 K): 0.18 | solubility (mole fraction) (in n-propanol, 283.15 K): 0.188 | solubility (mole fraction) (in n-propanol, 288.15 K): 0.195 | solubility (mole fraction) (in n-propanol, 293.15 K): 0.2 | solubility (mole fraction) (in n-propanol, 298.15 K): 0.207 | solubility (mole fraction) (in n-propanol, 303.15 K): 0.214 | solubility (mole fraction) (in n-propanol, 308.15 K): 0.22 | solubility (mole fraction) (in n-propanol, 313.15 K): 0.225 | solubility (mole fraction) (in sec-butanol, 273.15 K): 0.0342 | solubility (mole fraction) (in sec-butanol, 278.15 K): 0.0397 | solubility (mole fraction) (in sec-butanol, 283.15 K): 0.0472 | solubility (mole fraction) (in sec-butanol, 288.15 K): 0.0566 | solubility (mole fraction) (in sec-butanol, 293.15 K): 0.0654 | solubility (mole fraction) (in sec-butanol, 298.15 K): 0.0735 | solubility (mole fraction) (in sec-butanol, 303.15 K): 0.083 | solubility (mole fraction) (in sec-butanol, 308.15 K): 0.093 | solubility (mole fraction) (in sec-butanol, 313.15 K): 0.104
